Experimental findings from patent publication US12410152B2, “Oxazole and thioazole-type cullin ring ubiquitin ligase compounds and uses thereof” (Proxygen GmbH, priority 2019, dated 2025) are described below.

The subject of one series is KBM7 CUL4Amut cells. As to the kind of experiment: Cell viability assay, KBM7 CUL4A mutant. The class given is cell-based, human. Particulars: Table 2, data of FIG. 6; 3-day treatment; read-out: LC50 CUL4Amut. As to the method: KBM7 cells with the specified genetic backgrounds were grown in IMDM supplemented with 10% FBS and 1% penicillin/streptomycin (pen/strep). AsPC1, HCT116, NCI-H446 and 293T cells were grown in DMEM 10% FBS and 1% pen/strep. MV4; 11, Jurkat and Be (2) C cells were grown in RPMI 10% FBS 1% pen/strep. KBM7, AsPC1 and HCT116 cells expressing Cas9 were generated using the plasmid Lenti_Cas9_Blasti (Addgene #52962). The lentiviral plasmid lentiGuide-Puro (Addgene #52963) was used to express sgRNAs against the genes UBE2M (in KBM7-Cas9, AsPC1-Cas9 and HCT116-Cas9 cells), UBE2G1 (in KBM7-Cas9 cells) and […] (in KBM7-Cas9 cells). The lentiviral plasmid lentiGuide-Puro-IRES-mCherry (modified from Addgene #52963) was used to express sgRNAs against CUL4A (in KBM7-Cas9 cells). The lentiviral plasmid pLenti-PGK-Hygro-DEST-UBE2M was generated by Gateway cloning (empty destination vector Addgene #19066), and used to generate UBE2M^resc KBM7 cells.
Validating the previous results, a strong enrichment for cells transduced with UBE2Mtargeting sgRNAs was detected. […] The fact that Rbx1 was not detected in the initial experiment is likely explained by the fact that prolonged loss of RBX1 function is detrimental to cellular fitness. […] To understand if the tested compounds were uniquely dependent on CUL4B over CUL4A, a differential drug efficacy was assessed in dose ranging viability assays in KBM7 WT cells and isogenic clones deficient in either CUL4A, CUL4B, and UBE2G1. […]
KBM7^WT, mutant KBM7 clones (UBE2M^mut, UBE2M^resc, UBE2G1^mut CUL4A^mut, CUL4B^mut), and 3-day doxycycline pretreated KBM7^iCas9_sgDDB1 cells were seeded at a cell density of 50,000 cells/mL in 96-well plates with DMSO or drug, in triplicates. […] Cells were treated for 3 days, after which cell viability was assessed according to manufacturer's protocol (CellTiter Glo, Promega G7570). Survival curves and EC50 values were calculated by best-fit analysis of the log 10 drug concentration to fold change of drug-treated cells over DMSO-treated cells. […]

A further series relates to KBM7-Cas9 cells. As to the kind of experiment: CRISPR/Cas9 resistance screens (genome-wide Brunello and CRL-focused sgRNA libraries). The class given is cell-based, human. Particulars: two weeks continuous drug treatment, start 4xEC50. As to the method:
293T cells seeded on 15 cm culture plates 16h before were transfected with 5 μg Brunello pooled library (Addgene #73178; 2-vector system), 2.5 μg pMD2.G (Addgene #12259), and 3.75 μg psPAX2 (Addgene #12260) using PolyFect (Qiagen) according to the manufacturer's protocol. Viral supernatant was harvested 72h after transfection and concentrated using Lenti—X-concentrator (Takara), according to the manufacturer's protocol. Concentrated viral supernatant was stored in aliquots at −80° C. and titrated to achieve a MOI of 0.2-0.3.
250 million KBM7-Cas9 cells were transduced at MOI 0.23, yielding a calculated library representation of 668 cells/sgRNA (library representation=50 million cells). For transduction, 20 μL of concentrated viral supernatant was added to 5 million cells in 1.5 mL IMDM and 8 μg/mL polybrene in 6-well plates. Plates were centrifuged at 2000 rpm for 1 h at 30° C. in a benchtop centrifuge, 0.5 mL IMDM were added and then incubated at 37° C. overnight. The next day, transduced cells were pooled and diluted. Pools were selected with 1 μg/mL puromycin for 5 days. Three independent resistance screens were performed with the library using drugs at starting concentrations of 4×EC50. Selective drug treatment was performed on 50 million cells/drug at a seeding density of 500,000 cells/mL. Every 5 days, cells were pooled, counted and re-seeded to 50 million cells in 100 mL, applying fresh drug. […]
De-multiplexed raw reads were processed to count sgRNA spacer abundance using a custom script. The first 20 bp of the trimmed reads were collected and aligned against the Brunello spacer index using Bowtie2. Spacers were counted using cut-f 3|sort|uniq -c on the aligned SAM files. […] Log 2 fold changes of drug treatment vs DMSO were calculated from normalized counts, omitting spacers with no reads in the DMSO condition. The enrichment rank of each spacer sequence was expressed as a fraction of the total number of spacers, so that the most enriched spacer is assigned a perturbation strength of 1, in accordance with the STARS algorithm. […]

For `O=C(CSc1nc2ccccc2[nH]1)Nc1ccc(Cl)cn1` [IC021313.2], in the series with KBM7 CUL4Amut cells, the CC50 was 1560 nM. Besides, in the series with KBM7-Cas9 cells, the “gene enrichment in drug-tolerant populations (genome-wide CRISPR screen)” value (from here on “gene enrichment”) is listed as “striking enrichment in only four genes”.

In the case of `Cc1ccc(C(=O)N2CSCC2C(=O)N=c2[nH]cc(C)s2)o1` (stereo not drawn) [Compound T6938051], the CC50 in the series with KBM7 CUL4Amut cells is 2260 nM. Moreover, in the series with KBM7-Cas9 cells, the “gene enrichment” value was “striking enrichment in only four genes”.

Turning to `O=C(CSc1nnc2c(n1)[nH]c1ccccc12)Nc1ccc(Cl)cn1` [IC020772.1], the CC50 with KBM7 CUL4Amut cells is 1220 nM. The “gene enrichment” value in the series on KBM7-Cas9 cells is “striking enrichment in only four genes”.
